How the values were obtained:
SKKanGAS = test: Growth-based turbidometric screen, SKKanGAS under kanamycin (kanamycin resistance gene under ska promoter); format: cell-based, Group A Streptococcus; details: dose response under kanamycin selection, FIG. 11
Excerpt: A GAS strain was generated to have kanamycin resistance gene under the control of ski promoter to be used to screen for SK inhibitors. A transgenic GAS has been generated in SK(+)GAS host so that kanamycin resistance gene is driven by ska promoter in an extrachromosomal plasmid. The engineered GAS strain (SKKanGAS) was also kanamycin resistant. This kanamycin resistance gene in SK(−)GAS strain is within the omega-Km2 element whose promoter is independent of ska promoter (Khil et al., J. Infect. Dis. 2003; 188:497-505; Ringdahl et al., J. Biol. Chem. 1998; 273:6424-6430). As a result, SK(−)GAS can serve as a control in the screen for SK promoter to weed out compounds that inhibit GAS growth or interfere with kanamycin resistance protein function. […] A cutoff criterion was set to select compounds that can inhibit 50% growth in SKKanGAS while inhibiting less than 10% growth in SK(−)GAS. A total of 95 compounds met this criterion. As a result, these compounds were chosen for dose response assays and pIC50 of growth inhibition of each hit compound was then estimated. […] An example is given as FIG. 10.
Only SKKanGAS is used for screening in the primary screening. Briefly, 30 μl THY medium containing 20 μg/ml kanamycin is first plated into 384-well plates (384 microtiter plate, Corning #3701) and compounds are added into the wells. SKKanGAS strain is grown to OD600 nm=0.8. SKKanGAS is then diluted 12.5 fold into 20 μg/ml kanamycin THY medium. SKKanGAS mixture (10 μl) is added into each well of the 384-well plates. […] The plates are cultured at 37° C. for 16-20 hours. Growth of bacteria in each well is measured by absorbance at 600 nm. Z′>0.5, which is compatible with high throughput screening, has been typically obtained with the 384-well plate format in which 55,000 small compounds have been screened. […] SKKanGAS is a BSL2 level agent and can be stored at −80° C. SKKanGAS can be cultured at 37° C. in THY or Bill medium which is commercially available (Fisher Scientific, Pittsburgh, Pa.).
Once hit compounds have been identified by the primary screening, they are applied to dose response assays with both SKKanGAS and SK(−)GAS stains. SKKanGAS and SK(−)GAS are grown in 20 μg/ml kanamycin with serial dilution of hit compounds (DMSO final concentration=1% in THY medium). Plates are incubated at 37° C. for 15-20 hours in a climate controlled room (humidity 50%). The absorbance is measured at 600 nm. pIC50 of growth inhibition of each hit compound is then determined. Compounds that with at least 10 fold lower IC50 in SKKanGAS than SK(−)GAS strain are identified and subjected to secondary confirmatory assay. As a result, dose response assay identifies and eliminates most nonspecific compounds that may inhibit GAS growth or interfere with kanamycin resistance protein function.

SK(+)GAS (UMAA2616) = test: Survival of human plasminogen transgenic (Tg+) mice infected with GAS; format: in vivo; details: 6*10^5 CFU SK(+)GAS; 5 μg per mouse intraperitoneally daily for 5 days, starting one day after infection
Protocol: To examine the in vivo efficacy of compounds CCGC, CCGE, and CCGF, Tg+ mice were first infected with 6*10^5 CFU SK(+)GAS, then injected with 5 μg of test compound per mouse intraperitoneally daily for 5 days, starting one day after infection. […] In some embodiments, small compound are delivered continuously through an ALZET® Osmotic Pump (DURECT Corporation, Cupertino, Calif.).
Tg+ mice are then used to test the efficacy of compounds in attenuating the virulence of GAS infection. 20 Tg+ mice are infected with 10^5 CFU of SK(+)GAS then injected with the estimated experimental doses of the compounds two hours later. Survival is monitored for 9 days, while a control group of Tg+ mice will be infected with SK(+)GAS injected with DMSO. The comparison of mortalities between the two groups is analyzed as described above in the toxicity test. Treating mice with compound post-infection helps avoid potential side-effects of toxic or growth inhibition of compound on SK(+)GAS at the time of infection. As a result, the effect of compound on mice survival is a more authentic reflection of the efficacy of compound on inhibiting GAS virulence. Possible scenarios include:
This example describes the in vivo efficacy of compound 575096. Human plasminogen transgenic mice (Tg+) were first infected with 10^5″^6 CFUUMAA2616, then injected with 5-30 lag of test compound per mouse intraperitoneally daily for 5 days, starting one day after infection.

| Structure (SMILES) | effect on SKKanGAS and SK-GAS growth (SKKanGAS) | survival rate of Tg+ mice compared to DMSO control group (SK(+)GAS (UMAA2616)) |
| --- | --- | --- |
| COc1cc(C=CC(=O)c2cc(C)c(C)cc2C)cc(OC)c1OC [CCGF] | specific inhibition of SKKanGAS growth under kanamycin selection | trend toward improvement |
| C=CCn1c(SCCCC)nc2c(c1=O)C1(CCCCC1)Cc1ccccc1-2 [CCGE] | specific inhibition of SKKanGAS growth under kanamycin selection | significant improvement in survival rate |
| COC(=O)c1ccccc1Sc1c(-c2ccccc2)nc2ccccn12 [CCGC] | specific inhibition of SKKanGAS growth under kanamycin selection | No improvement |

Reference: US8501722B2, “Methods and compositions for treating bacterial infection” (priority 2009, dated 2013)
